System: luciferase
Assay type: in vivo, BALB/c mice
Conditions: LNP with the indicated cationic lipid; 3 μg Luciferase mRNA-LNP intradermal

| SMILES | delivery of mRNA (expression of luciferase measured by IVIS) |
| --- | --- |
| CCCCCCCCC(=O)N(CCCN(C)C)C(CCCCCCCCC(=O)OCC(CCCC)CCCCCC)CCCCCCCCC(=O)OCC(CCCC)CCCCCC (stereo not drawn) [II-9] | effectively delivered |
| CCCCCCCCC(CCCCCC)COC(=O)CCCCCCCCC(CCCCCCCCC(=O)OCC(CCCCCC)CCCCCCCC)N(CCCN(C)C)C(=O)CCCCCCC (stereo not drawn) [II-12] | effectively delivered |
| CCCCCCCCC(=O)N(CCCN1CCCC1)C(CCCCCCCCC(=O)OCC(CCCC)CCCCCC)CCCCCCCCC(=O)OCC(CCCC)CCCCCC (stereo not drawn) [II-36] | effectively delivered |
| CCCCCCCCC(CCCCCC)C(=O)OCCCCCCN(CCCCCCOC(=O)C(CCCCCC)CCCCCCCC)CCN(C)C (stereo not drawn) [Compound I-5] | effectively delivered |
| CCCCCCCCC(=O)N(CCCN(C)C)C(CCCCCCCCC(=O)OC(CCCCCC)CCCCCC)CCCCCCCCC(=O)OC(CCCCCC)CCCCCC [II-11] | effectively delivered |
| CCCCCCCCC(CCCCCC)C(=O)OCCCCCCCCCN(CCCCCCCCCOC(=O)C(CCCCCC)CCCCCCCC)CCN(C)C (stereo not drawn) [Compound I-6] | effectively delivered |
| CCCCCCCC(=O)N(CCCN(C)C)C(CCCCCCCCC(=O)OC(CCCCCC)CCCCCC)CCCCCCCCC(=O)OC(CCCCCC)CCCCCC [II-10] | effectively delivered |
| CCCCCCCCC(CCCCCC)C(=O)OCCCCCCN(CCCCO)CCCCCCOC(=O)C(CCCCCC)CCCCCCCC (stereo not drawn) [III-3] | effectively delivered |
| CCCCCCCCC(CCCCCC)C(=O)OCCCCCCN(CCCCCO)CCCCCCOC(=O)C(CCCCCC)CCCCCCCC (stereo not drawn) [III-7] | effectively delivered |

Source: patent US20190274968A1 (priority 2016, published 2019)
